Patent US4992449A, “7-(substituted)cycloalkylamino-1 -(substituted)-6-fluoro-1,4-dihydro-4-oxo-3-quinolinecarboxylic acids” (American Cyanamid Company, priority 1990, dated 1991)
Converted amounts (≈) assume the structure as drawn.

What was measured:
Test in all cases: In vitro antibacterial MIC, agar plate dilution
Format in all cases: cell-based
[1] = tested on: Enterobacter cloacae VGH 84-39; conditions: VGH8439, Mueller-Hinton agar, 10^4 CFU, 18 hours, 35° C.
Description: (§1) The in vitro antimicrobial spectrum of the compounds of this invention were determined by the agar plate dilution method with Mueller-Hinton agar and an inoculum of each test organism of approximately 10^4 colony forming units delivered by the Steers replicating device. The minimal inhibitory concentration (MIC) in mcg/ml is defined as the lowest concentration of test compound that inhibited visible growth after 18 hours incubation at 35° C. Results are given in Table I, with the test compounds identified by the number of their hereinafter described examples

[2] = tested on: Staphylococcus faecalis CMC 83-120; conditions: CMC83120, Mueller-Hinton agar, 10^4 CFU, 18 hours, 35° C.
Description: as §1

[3] = tested on: Escherichia coli MOR 84-20; conditions: MOR8420, Mueller-Hinton agar, 10^4 CFU, 18 hours, 35° C.
Description: as §1

[4] = tested on: Klebsiella neumoniae CMC 84-31; conditions: CMC8431, Mueller-Hinton agar, 10^4 CFU, 18 hours, 35° C.
Description: as §1

[5] = tested on: Staphylococcus aureus K 82-26; conditions: K8226, Mueller-Hinton agar, 10^4 CFU, 18 hours, 35° C.
Description: as §1

[6] = tested on: Staphylococcus aureus VGH 84-47; conditions: VGH8447, Mueller-Hinton agar, 10^4 CFU, 18 hours, 35° C.
Description: as §1

[7] = tested on: Serratia marcescens CMC 83-74; conditions: CMC8374, Mueller-Hinton agar, 10^4 CFU, 18 hours, 35° C.
Description: as §1

[8] = tested on: Citrobacter diversus K 82-24; conditions: Citrobacter koseri, K8224, Mueller-Hinton agar, 10^4 CFU, 18 hours, 35° C.
Description: as §1

[9] = tested on: Morganella morganii MOR 84-45; conditions: MOR8445, Mueller-Hinton agar, 10^4 CFU, 18 hours, 35° C.
Description: as §1

[10] = tested on: Escherichia coli CMC 84-50; conditions: CMC8450, Mueller-Hinton agar, 10^4 CFU, 18 hours, 35° C.
Description: as §1

[11] = tested on: Moranella morganii VGH 84-12; conditions: Mueller-Hinton agar, 10^4 CFU, 18 hours, 35° C.
Description: as §1

[12] = tested on: Staphylococcus aureus CMC 83-131; conditions: CMC83131, Mueller-Hinton agar, 10^4 CFU, 18 hours, 35° C.
Description: as §1

[13] = tested on: Streptococcus faecalis UCI 85-30; conditions: Enterococcus faecalis, UCI8530, Mueller-Hinton agar, 10^4 CFU, 18 hours, 35° C.
Description: as §1

[14] = tested on: Escherichia coli ATCC 25922; conditions: Escherichia coli, ATCC25922, 18 h, Table I; Escherichia coli ATCC 25922; Mueller-Hinton agar, 10^4 CFU, 18 hours, 35° C.; read-out: MIC
Description: as §1

[15] = tested on: Klebsiella neumoniae MOR 84-24; conditions: MOR8424, Mueller-Hinton agar, 10^4 CFU, 18 hours, 35° C.
Description: as §1

[16] = tested on: Enterobacter cloacae MOR 84-30; conditions: MOR8430, Mueller-Hinton agar, 10^4 CFU, 18 hours, 35° C.
Description: as §1

[17] = tested on: Staphylococcus faecalis VGH 84-69; conditions: VGH8469, Mueller-Hinton agar, 10^4 CFU, 18 hours, 35° C.
Description: as §1

[18] = tested on: Enterobacter cloacae K 84-10; conditions: K8410, Mueller-Hinton agar, 10^4 CFU, 18 hours, 35° C.
Description: as §1

[19] = tested on: Staphylococcus aureus ATCC 29213; conditions: Staphylococcus aureus, ATCC29213, 18 h, Table I, Mueller-Hinton agar, 10^4 CFU, 18 hours, 35° C., read-out: MIC
Description: as §1

[20] = tested on: Proteus rettgeri IO 83-21; conditions: Providencia rettgeri, IO8321, Mueller-Hinton agar, 10^4 CFU, 18 hours, 35° C.
Description: as §1

[21] = tested on: Moranella morganii CMC 84-38; conditions: Mueller-Hinton agar, 10^4 CFU, 18 hours, 35° C.
Description: as §1

[22] = tested on: Klebsiella neumoniae IO 83-5; conditions: IO835, Mueller-Hinton agar, 10^4 CFU, 18 hours, 35° C.
Description: as §1

[23] = tested on: Pseudomonas aeruginosa VGH 84-3; conditions: VGH843, Mueller-Hinton agar, 10^4 CFU, 18 hours, 35° C.
Description: as §1

[24] = tested on: Providencia stuartii CMC 83-3; conditions: CMC833, Mueller-Hinton agar, 10^4 CFU, 18 hours, 35° C.
Description: as §1

[25] = tested on: Pseudomonas aeruginosa VGH 84-16; conditions: VGH8416, Mueller-Hinton agar, 10^4 CFU, 18 hours, 35° C.
Description: as §1

[26] = tested on: Serratia marcescens MOR 84-41; conditions: MOR8441, Mueller-Hinton agar, 10^4 CFU, 18 hours, 35° C.
Description: as §1

[27] = tested on: Serratia marcescens IO 83-63; conditions: IO8363, Mueller-Hinton agar, 10^4 CFU, 18 hours, 35° C.
Description: as §1

[28] = tested on: Escherichia coli VGH 84-19; conditions: VGH8419, Mueller-Hinton agar, 10^4 CFU, 18 hours, 35° C.
Description: as §1

[29] = tested on: Pseudomonas aeruginosa CMC 83-20; conditions: CMC8320, Mueller-Hinton agar, 10^4 CFU, 18 hours, 35° C.
Description: as §1

| MIC [1] [µg/mL] | MIC [2] [µg/mL] | MIC [3] [µg/mL] | MIC [4] [µg/mL] | MIC [5] [µg/mL] | MIC [6] [µg/mL] | MIC [7] [µg/mL] | MIC [8] [µg/mL] | MIC [9] [µg/mL] | MIC [10] [µg/mL] | MIC [11] [µg/mL] | MIC [12] [µg/mL] | MIC [13] [µg/mL] | MIC [14] [µg/mL] | MIC [15] [µg/mL] | MIC [16] [µg/mL] | MIC [17] [µg/mL] | MIC [18] [µg/mL] | MIC [19] [µg/mL] | MIC [20] [µg/mL] | Compound | further results |
| --- | --- | --- | --- | --- | --- | --- | --- | --- | --- | --- | --- | --- | --- | --- | --- | --- | --- | --- | --- | --- | --- |
| 1 (≈ 2.9 µM) | > 16 | 0.5 (≈ 1.45 µM) | 2 (≈ 5.79 µM) | 4 (≈ 11.6 µM) | 4 (≈ 11.6 µM) | > 16 | 0.5 (≈ 1.45 µM) | 2 (≈ 5.79 µM) | 0.5 (≈ 1.45 µM) | 4 (≈ 11.6 µM) | > 16 | > 16 | 0.5 (≈ 1.45 µM) | 1 (≈ 2.9 µM) | 2 (≈ 5.79 µM) | > 16 | 1 (≈ 2.9 µM) | 4 (≈ 11.6 µM) | 4 (≈ 11.6 µM) | N[C@H]1CCC[C@H]1Nc1cc2c(cc1F)c(=O)c(C(=O)O)cn2C1CC1 (relative stereo) [Example 2, Cis-7-[(2-Aminocyclopentyl)amino]-1-cyclopropyl-6-fluoro-1,4-dihydro-4-oxo-3-quinolinecarboxylic acid] | MIC [21]: 1 µg/mL (≈ 2.9 µM); MIC [22]: 2 µg/mL (≈ 5.79 µM); MIC [23]: > 16 µg/mL; MIC [24]: > 16 µg/mL; MIC [25]: 16 µg/mL (≈ 46.3 µM); MIC [26]: 1 µg/mL (≈ 2.9 µM); MIC [27]: 2 µg/mL (≈ 5.79 µM); MIC [28]: 1 µg/mL (≈ 2.9 µM); MIC [29]: 8 µg/mL (≈ 23.2 µM) |
| 0.5 (≈ 1.39 µM) | 4 (≈ 11.1 µM) | 0.25 (≈ 0.696 µM) | 1 (≈ 2.78 µM) | 2 (≈ 5.56 µM) | 2 (≈ 5.56 µM) | 16 (≈ 44.5 µM) | 0.25 (≈ 0.696 µM) | 0.5 (≈ 1.39 µM) | 1 (≈ 2.78 µM) | 1 (≈ 2.78 µM) | 4 (≈ 11.1 µM) | 4 (≈ 11.1 µM) | 0.25 (≈ 0.696 µM) | 1 (≈ 2.78 µM) | 1 (≈ 2.78 µM) | 4 (≈ 11.1 µM) | 0.5 (≈ 1.39 µM) | 2 (≈ 5.56 µM) | 2 (≈ 5.56 µM) | N[C@H]1CCCC[C@H]1Nc1cc2c(cc1F)c(=O)c(C(=O)O)cn2C1CC1 (relative stereo) [Example 1, Cis-7-[(2-Aminocyclohexyl)amino]1-cyclopropyl-6-fluoro-1,4-dihydro-4-oxo-3-quinolinecarboxylic acid] | MIC [21]: 1 µg/mL (≈ 2.78 µM); MIC [22]: 1 µg/mL (≈ 2.78 µM); MIC [23]: > 16 µg/mL; MIC [24]: > 16 µg/mL; MIC [25]: 8 µg/mL (≈ 22.3 µM); MIC [26]: 0.5 µg/mL (≈ 1.39 µM); MIC [27]: 1 µg/mL (≈ 2.78 µM); MIC [28]: 0.25 µg/mL (≈ 0.696 µM); MIC [29]: 4 µg/mL (≈ 11.1 µM) |
